{"source": "patent US7183430B2", "about": "“Compounds which can block the response to chemical substances or thermal stimuli or mediators of inflammation of nociceptors, production method thereof and compositions containing same” (Diverdrugs, S.L., priority 2002, dated 2007)", "key": {"[1]": {"assay": "acute inflammatory pain model caused by subcutaneous capsaicin (paw lick latency)", "format": "in vivo", "conditions": "mice, intraperitoneal; for behavioral latency time (paw lick): carrier 20±5 s", "description": "The analgesic activity of the products was determined by assessing their effect in the acute inflammatory pain model caused by subcutaneous administration of the capsaicin irritant. Administration of this vanilloid causes a neurogenic inflammation in animals with acute painful burning sensation resulting in thermal and mechanical hyperalgesia. The behavioral latency time to paw lick after intraperitoneal administration of the compounds to mice at different doses was monitored."}, "[2]": {"test_system": "afferent nerve fibers from the knee of the rat", "assay": "nervous activity caused by capsaicin in afferent nerve fibers from the knee"}, "[3]": {"assay": "52° C. hot plate nociception test", "format": "in vivo", "conditions": "mice, 10 mg/Kg intraperitoneal, carrier 11.5±2 s", "description": "A 52° C. hot plate test was used as a nociception test, where the latency time to paw withdrawal or jump of the animal was monitored. The compounds were intraperitoneally administered to mice at a dose of 10 mg/Kg. The behavioral test was carried out at 30, 60 and 120 minutes after the administration of the compounds."}, "[4]": {"test_system": "primary trigeminal neuronal cultures", "assay": "entrance of calcium cation stimulated by capsaicin in neuronal cultures", "format": "cell-based"}}, "data": [{"smiles": "N=C(N)NCCC[C@H](N)C(=O)N(CCc1ccc(Cl)cc1Cl)CC(=O)N(CCc1ccc(Cl)cc1Cl)CC(N)=O", "note": "[Example 1]", "values": [{"measurement": "behavioral latency time (paw lick)", "setting": "[1]; 2 mg/Kg", "result": "90 ± 10", "unit": "s"}, {"measurement": "behavioral latency time (paw lick)", "setting": "[1]; 5 mg/Kg", "result": "190 ± 50", "unit": "s"}, {"measurement": "behavioral latency time (paw lick)", "setting": "[1]; 10 mg/Kg", "result": "250 ± 40", "unit": "s"}, {"measurement": "duration of the behavioral response", "setting": "[1]; 2 to 10 mg/Kg", "result": "decreased as the dose of the compound increased"}, {"measurement": "block of the nervous activity caused by capsaicin", "setting": "[2]", "result": 80, "unit": "%"}, {"measurement": "latency to the first response (paw withdrawal or jump)", "setting": "[3]; 30 minutes after", "result": "20 ± 4", "unit": "s"}, {"measurement": "latency to the first response (paw withdrawal or jump)", "setting": "[3]; 60 minutes after", "result": "18 ± 3", "unit": "s"}, {"measurement": "latency to the first response (paw withdrawal or jump)", "setting": "[3]; 120 minutes after", "result": "18 ± 4", "unit": "s"}, {"measurement": "inhibition of the entrance of calcium cation stimulated by capsaicin", "setting": "[4]", "result": 85, "unit": "%"}]}]}
